# According to PubChem BioAssay (NCI):
#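 Results reflect a 48-hour exposure of cells in 96-well plates to compound at five concentrations. GI50 marks 50% less growth. TGI is the concentration that stops growth completely.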
# Columns and labels:
# Experiment in all cases: NCI-60 cell line screen, 48 h
# [1] = test system: ACHN renal
# [2] = test system: SNB-75 CNS
# [3] = test system: EKVX NSCLC
# [4] = test system: SK-MEL-28 melanoma
# [5] = test system: HS 578T breast
# [6] = test system: RXF 393 renal
# [7] = test system: CCRF-CEM leukemia
# [8] = test system: K-562 leukemia
# [9] = test system: HL-60(TB) leukemia
# [10] = test system: SW-620 colon
# [11] = test system: M14 melanoma
# [12] = test system: TK-10 renal
# [13] = test system: OVCAR-3 ovarian
# [14] = test system: LOX IMVI melanoma
# [15] = test system: UO-31 renal
# [16] = test system: OVCAR-4 ovarian
# [17] = test system: HOP-92 NSCLC
# [18] = test system: NCI-H522 lung
# [19] = test system: NCI/ADR-RES ovarian
# [20] = test system: BT-549 breast
# [21] = test system: U251 CNS
# [22] = test system: SK-MEL-5 melanoma
# [23] = test system: HCT-15 colon
# [24] = test system: UACC-257 melanoma
# [25] = test system: SNB-19 CNS
# [26] = test system: MCF7 breast
# [27] = test system: KM12 colon
# [28] = test system: HT29 colon
# [29] = test system: SF-268 CNS
# [30] = test system: OVCAR-5 ovarian
# [31] = test system: A498 renal
# [32] = test system: UACC-62 melanoma
# [33] = test system: NCI-H226 lung
# [34] = test system: SF-539 CNS
# [35] = test system: SR leukemia
# [36] = test system: HCC-2998 colon
# [37] = test system: SN12C renal
# [38] = test system: A549 NSCLC
# [39] = test system: CAKI-1 renal
# [40] = test system: T-47D breast
# [41] = test system: DU-145 prostate
# [42] = test system: SK-OV-3 ovarian
# [43] = test system: MOLT-4 leukemia
# [44] = test system: RPMI-8226 leukemia
# [45] = test system: PC-3 prostate
# [46] = test system: 786-0 renal
# [47] = test system: OVCAR-8 ovarian
# [48] = test system: SF-295 CNS
# [49] = test system: IGROV1 ovarian
# [50] = test system: NCI-H460 lung
# [51] = test system: NCI-H23 lung
# [52] = test system: COLO 205 colon
# [53] = test system: HOP-62 NSCLC
# [54] = test system: MDA-MB-435
# [55] = test system: MALME-3M melanoma
# [56] = test system: MDA-MB-231 breast
# [57] = test system: SK-MEL-2 melanoma
# [58] = test system: HCT-116 colon
structure (smiles),measurement,setting,value
CSC1=Nc2c(c(C)c(-c3ccccc3)n2CCCN2CCCCC2)C2=NC(=O)C[C@H](C)N12,GI50,[1],4.78 µM
same,TGI,[1],43.8 µM
same,GI50,[2],4.98 µM
same,TGI,[2],32 µM
same,GI50,[3],3.06 µM
same,TGI,[3],> 44.7 µM
same,GI50,[4],3.32 µM
same,TGI,[4],14.9 µM
same,GI50,[5],2.04 µM
same,TGI,[5],10.4 µM
same,GI50,[6],2.56 µM
same,TGI,[6],10.2 µM
same,GI50,[7],2.68 µM
same,TGI,[7],10.2 µM
same,GI50,[8],5.08 µM
same,TGI,[8],87.6 µM
same,GI50,[9],2.51 µM
same,TGI,[9],> 19.8 µM
same,GI50,[10],2.99 µM
same,TGI,[10],18.2 µM
same,GI50,[11],3.68 µM
same,TGI,[11],16.1 µM
same,GI50,[12],3.98 µM
same,TGI,[12],> 30.6 µM
same,GI50,[13],2.55 µM
same,TGI,[13],11 µM
same,GI50,[14],3.16 µM
same,TGI,[14],13.4 µM
same,GI50,[15],6.35 µM
same,TGI,[15],26 µM
same,GI50,[16],3.21 µM
same,TGI,[16],37.7 µM
same,GI50,[17],4.1 µM
same,TGI,[17],48.9 µM
same,GI50,[18],2.55 µM
same,TGI,[18],9.78 µM
same,GI50,[19],20 µM
same,TGI,[19],79.1 µM
same,GI50,[20],2.83 µM
same,TGI,[20],13.7 µM
same,GI50,[21],2.71 µM
same,TGI,[21],17.7 µM
same,GI50,[22],1.99 µM
same,TGI,[22],4.64 µM
same,GI50,[23],8.41 µM
same,TGI,[23],> 53.2 µM
same,GI50,[24],4.37 µM
same,TGI,[24],27.5 µM
same,GI50,[25],3.08 µM
same,TGI,[25],> 94.6 µM
same,GI50,[26],2.72 µM
same,TGI,[26],11.3 µM
same,GI50,[27],3.26 µM
same,TGI,[27],12.5 µM
same,GI50,[28],2.38 µM
same,TGI,[28],10.9 µM
same,GI50,[29],3.96 µM
same,TGI,[29],21.9 µM
same,GI50,[30],11.3 µM
same,TGI,[30],> 100 µM
same,GI50,[31],2.6 µM
same,TGI,[31],9.64 µM
same,GI50,[32],3.17 µM
same,TGI,[32],15.4 µM
same,GI50,[33],4.5 µM
same,TGI,[33],> 79.7 µM
same,GI50,[34],6.07 µM
same,TGI,[34],70.4 µM
same,GI50,[35],16.7 µM
same,TGI,[35],> 100 µM
same,GI50,[36],3.18 µM
same,TGI,[36],12.7 µM
same,GI50,[37],2.42 µM
same,TGI,[37],20.9 µM
same,GI50,[38],3.57 µM
same,TGI,[38],> 32.6 µM
same,GI50,[39],12.1 µM
same,TGI,[39],44.5 µM
same,GI50,[40],2.28 µM
same,TGI,[40],8.53 µM
same,GI50,[41],4.01 µM
same,TGI,[41],> 52.4 µM
same,GI50,[42],2.66 µM
same,TGI,[42],8.57 µM
same,GI50,[43],4.38 µM
same,TGI,[43],> 22.5 µM
same,GI50,[44],0.505 µM
same,TGI,[44],2.25 µM
same,GI50,[45],2.01 µM
same,TGI,[45],10.1 µM
same,GI50,[46],4.48 µM
same,TGI,[46],36.5 µM
same,GI50,[47],4.01 µM
same,TGI,[47],> 55.7 µM
same,GI50,[48],2.54 µM
same,TGI,[48],9.19 µM
same,GI50,[49],2.25 µM
same,TGI,[49],13.5 µM
same,GI50,[50],3.27 µM
same,TGI,[50],12.4 µM
same,GI50,[51],3.08 µM
same,TGI,[51],> 46.4 µM
same,GI50,[52],1.51 µM
same,TGI,[52],2.95 µM
same,GI50,[53],3.11 µM
same,TGI,[53],15.8 µM
same,GI50,[54],2.97 µM
same,TGI,[54],10.8 µM
same,GI50,[55],2.63 µM
same,TGI,[55],9.61 µM
same,GI50,[56],2.59 µM
same,TGI,[56],> 30.9 µM
same,GI50,[57],2.14 µM
same,TGI,[57],5.26 µM
same,GI50,[58],2.71 µM
same,TGI,[58],> 44.6 µM
